Measurements taken from patent US5112805A, “Pharmaceutical preparation for promoting epithelial healing and prevention of epithelial destruction” (Labsystems, Oy, priority 1989, dated 1992).
Entries after “also recorded” stand apart in the source; their conditions may differ.

Columns and labels:
corneal lesions = test: Topical treatment of patients with corneal lesions, clinical response; assay type: in vivo, human; settings: for clinical effect: used at first in patients 1, 3 and 4; for therapeutic effect: patient with bilateral acid corrosion
Protocol: Patients and control individuals. All patients reported here were treated in the Eye Clinic of the Helsinki Central University Hospital.
(§1) Proteinase inhibitor and fibronectin treatment. The patients received topical aprotinin (20 or 40 IU/ml), diluted from the stock preparation in sterile saline or commercially obtained wetting agent (Liquifilm Tears; Allergan), 1-2 drops (50 ul each) at 3 hour intervals. When applied, fibronectin (200 ug/ml) was administered 2-3 minutes after aprotinin treatment, also using 1-2 drops at a time.
After the success with this index case and similar experience with the first few additional patients the following therapeutic regimen was adopted. Patients with corneal ulcers were first treated for four days with conventional therapy including antimicrobial drugs according to laboratory findings or clinical picture. If no response was seen and if proteolytic activity was detected in the tear fluid, aprotinin therapy was initiated. In some cases with low activity in the initial or later tear fluid specimens, aprotinin was combined with topical fibronectin. In addition, in certain patients, such as in a patient with bilateral acid corrosion, no proteolytic activity was detected immediately after injury. […] In zymographic analysis the proteinase in the patient's tear fluid specimen comigrated with plasmin (data not shown). […] This patient will be described in detail elsewhere. However, a large proportion of patients with therapy-resistant corneal lesions of various categories (Table 2) had proteolytic activity and the above regimen was followed.

[1] = system: proteolytic plasmin-like activity in tear fluid; test: Radial caseinolysis assay of tear fluid proteolytic activity with inhibitors added; assay type: biochemical, human
Protocol: (§2) Assay of proteolytic activity in tear fluids. Tear fluid was collected into a glass capillary. Proteolytic activity, using an 8 ul specimen of tear fluid, was measured by the radial caseinolysis procedure^23, using agarose gel and bovine milk casein as substrate. Human plasmin (20 casein units per mg; Kabi Diagnostica, Stockholm, Sweden) was used as standard. The results are expressed as micrograms of plasmin-like activity per milliliter tear fluid. Plasminogen activator levels were determined according to Saksela^23 using plasminogen-containing casein-agarose gels and urokinase (50 000 Plough units/ml; Calbiochem) as standard.
Proteinase inhibitors-Aprotinin (20 000 IU/ml Trasylol®, Bayer), L-cysteine (0.15M; E. Merck), heparin (2500 IU/ml Medica).

[2] = system: tear fluid plasmin-like activity; test: Tear fluid plasmin-like activity of patients during therapy; assay type: in vivo, human
Protocol: as §2, §1

[3] = Side effects of aprotinin eye drops in patients; assay type: in vivo, human
Protocol: as §1

epithelium = settings: published report on clinical use of fibronectin; cited from earlier work
[4] = Patient 1 tear fluid (11.6 without inhibitor), aprotinin 20 IU/ml, L-cysteine 0.075 M, heparin 1250 IU/ml
[5] = Patient 2 tear fluid (7.0 without inhibitor), aprotinin 20 IU/ml, L-cysteine 0.075 M, heparin 1250 IU/ml
[6] = Patient 8 tear fluid (6.0 without inhibitor), aprotinin 10 IU/ml, L-cysteine 0.075 M, heparin 1250 IU/ml
[7] = Patient 9 tear fluid (6.3 without inhibitor), aprotinin 10 IU/ml, L-cysteine 0.075 M, heparin 1250 IU/ml
[8] = tear fluid of patients 1, 2, 8 and 9 in vitro
[9] = tear fluids of patients with corneal lesions, in the assay

## N[C@@H](CS)C(=O)O [L-cysteine]
Corneal lesions; patient 4, topical L-cysteine therapy, no detectable microbial pathogens
  course of cornea during therapy: perforated spontaneously
Corneal lesions
  clinical effect: little or no clinical effect
[1]; [4]
  Proteolytic plasmin-like activity: 10.1 µg/mL
[1]; [5]
  Proteolytic plasmin-like activity: 7.2 µg/mL
[1]; [6]
  Proteolytic plasmin-like activity: 4.9 µg/mL
[1]; [7]
  Proteolytic plasmin-like activity: 5.5 µg/mL
[1]; [8]
  effect on the proteolytic activity of tear fluid: very little effect
[1]; [9]
  effect on the proteolytic activity of tear fluid: minimal inhibitory effect

## aprotinin
[2]; patient 2, 25 Nov, 7.0 on 1 Nov
  Tearfluid plasmin-like activity: < 0.1 µg/mL
[2]; patient 3, 4 Dec, 6.8 on 16 Nov
  Tearfluid plasmin-like activity: < 0.1 µg/mL
[2]; patient 4, 20 Dec, 5.5 on 25 Nov
  Tearfluid plasmin-like activity: < 0.1 µg/mL
[2]; patient 7, 10 Jan, 7.6 on 8 Jan, aprotinin 20 IU/ml from Jan 8
  Tearfluid plasmin-like activity: 4.7 µg/mL
[2]; patient 7, 16 Jan, aprotinin 20 IU/ml from Jan 8
  Tearfluid plasmin-like activity: 12.0 µg/mL
[2]; patient 7, 20 Jan, aprotinin 20 IU/ml from Jan 8
  Tearfluid plasmin-like activity: 12.5 µg/mL
[2]; patient 7, 22 Jan, aprotinin 40 IU/ml hourly from 20 Jan, fibronectin added Jan 22
  Tearfluid plasmin-like activity: 3.3 µg/mL
[2]; patient 8, 14 Feb
  Tearfluid plasmin-like activity: < 0.1 µg/mL
[2]; patient 8, 29 Jan, 6.0 on 6 Jan, 4.5 on 8 Jan during antibiotic therapy
  Tearfluid plasmin-like activity: 0.5 µg/mL
[2]; patient 8, 31 Jan
  Tearfluid plasmin-like activity: 0.5 µg/mL
[2]; patient 9, 13 Feb
  Tearfluid plasmin-like activity: < 0.1 µg/mL
[2]; patient 9, 20 Jan, 6.3 on 16 Jan, with topical antibiotics
  Tearfluid plasmin-like activity: 3.0 µg/mL
[2]; patient 9, 30 Jan
  Tearfluid plasmin-like activity: < 0.1 µg/mL
[2]; patient 10, 22 Jan, 10.3 on 20 Jan
  Tearfluid plasmin-like activity: 2.4 µg/mL
[2]; patient 10, 24 Jan
  Tearfluid plasmin-like activity: < 0.1 µg/mL
[2]; patient 11, 9 Feb
  Tearfluid plasmin-like activity: < 0.1 µg/mL
[2]; patient 11, 30 Jan, 3.1 on 21 Jan
  Tearfluid plasmin-like activity: 1.9 µg/mL
[2]; patient 12, 6 Feb
  Tearfluid plasmin-like activity: < 0.1 µg/mL
[2]; patient 12, 24 Jan, 20.0 on 22 Jan, with antibiotics
  Tearfluid plasmin-like activity: 12.4 µg/mL
[2]; patient 13, 3 Feb, 6.3 on 31 Jan, with topical acyclovir, antibiotics
  Tearfluid plasmin-like activity: 0.5 µg/mL
[2]; patient 13, 19 Feb
  Tearfluid plasmin-like activity: < 0.1 µg/mL
Corneal lesions; all fifteen patients with proteolytic activity in tear fluid and corneal lesion, aprotinin, in some cases combined with fibronectin
  response to therapy: resulted in corneal epithelialization; also recorded: responded quickly
Corneal lesions; patient 1, novel therapy (aprotinin with fibronectin), after nine weeks of unsuccessful conventional treatment
  time to response: ≤ 24 h
Corneal lesions; patient 2, disciform keratitis, recurrent erosion for 1 week
  Recovery in: 4 days
Corneal lesions; patient 3, corneal erosion caused by soft contact lens, proteinase inhibitor therapy
  clinical response: improved rapidly
Corneal lesions; patient 3, soft contact lens user, recurrent corneal erosion
  Complete epithelialization in: 48 h
Corneal lesions; patient 4, corneal perforation, soft contact lens and antibiotics together with aprotinin
  clinical response: led to healing
Corneal lesions; patient 4, keratitis sicca, corneal perforation and ulcer
  duration of corneal healing: six
Corneal lesions; patient 7, Mooren's ulcer, 20 IU/ml, later (20 Jan on) 40 IU/ml hourly
  clinical response: successfully treated
Corneal lesions; patient 7, Mooren's ulcer, within a month after onset of aprotinin therapy
  ulcer area relative to original area: regressed into a third of its original area
Corneal lesions; patient 8, ulcus corneae, S. aureus, after onset of aprotinin
  complete healing in: 12 days
Corneal lesions; patient 9, deep corneal ulcer, topical antibiotics and aprotinin
  epithelialization: rapid
Corneal lesions; patient 10, giant papillary conjunctivitis
  epithelialization in: one
Corneal lesions; patient 12, absc. corneae, Moraxella, antibiotics and aprotinin
  Complete epithelialization in: 2 weeks
Corneal lesions; patient 13, herpes keratitis, new erosion, with topical acyclovir, antibiotics
  response to therapy: clear improvement
Corneal lesions; patient 14, blepharitis chronica
  condition improved in: 1 week
Corneal lesions; patient 15, conjunctivitis vernalis, punctate erosion
  condition improved in: 5 days
Corneal lesions; aprotinin therapy after failure of fibronectin
  therapeutic effect: rapid epithelization
[3]; aprotinin eye drops, patient 4 (dry eyes, spontaneous perforation), five weeks
  outcome and complications of longest treatment: good results without corneal or other complications
[3]; topical aprotinin therapy, patients
  side effects: No side effects
[1]; [4]
  Proteolytic plasmin-like activity: < 0.1 µg/mL
[1]; [5]
  Proteolytic plasmin-like activity: < 0.1 µg/mL
[1]; Patient 7 tear fluid (7.6 without inhibitor), aprotinin 10 IU/ml
  Proteolytic plasmin-like activity: < 0.1 µg/mL
[1]; [6]
  Proteolytic plasmin-like activity: < 0.1 µg/mL
[1]; [7]
  Proteolytic plasmin-like activity: < 0.1 µg/mL
[1]; Patient 15 tear fluid (4.2 without inhibitor), aprotinin 10 IU/ml
  Proteolytic plasmin-like activity: < 0.1 µg/mL
[1]; [9]
  effect on the proteolytic activity of tear fluid: can be inhibited
[1]; tear fluids of patients with corneal lesions, in the assay, listed as Aprotinin
  effect on the proteolytic activity of tear fluid: inhibit effectively

## fibronectin
epithelium
  time to healing of the epithelium: about 20 days
Corneal lesions; patient 1, topical fibronectin alone from Oct. 16, one day later
  appearance of corneal erosion: altered appearance
Corneal lesions; left eye, fibronectin applied 7 days later, tear fluid with plasmin-like activity
  therapeutic effect: no such therapeutic effect was observed
Corneal lesions; right eye, initial topical fibronectin, no proteolytic activity detected
  therapeutic effect: clear beneficial effect and epithelial healing

## heparin
Corneal lesions
  clinical effect: little or no clinical effect
[1]; [4]
  Proteolytic plasmin-like activity: 11.9 µg/mL
[1]; [5]
  Proteolytic plasmin-like activity: 7.8 µg/mL
[1]; [6]
  Proteolytic plasmin-like activity: 7.2 µg/mL
[1]; [7]
  Proteolytic plasmin-like activity: 6.8 µg/mL
[1]; [8]
  effect on the proteolytic activity of tear fluid: very little effect
[1]; [9]
  effect on the proteolytic activity of tear fluid: no effect
